Experimental data published in the NIST ThermoML archive (doi:10.1021/je301370s).

Experiment: xn = mol fraction of the nth substance listed
Conditions: 101 kPa, Liquid, Taylor dispersion method, x1 = 0

binary diffusion coefficient (298.2 K) [m2/s]	binary diffusion coefficient (303.2 K) [m2/s]	binary diffusion coefficient (313.2 K) [m2/s]	binary diffusion coefficient (323.2 K) [m2/s]	binary diffusion coefficient (333.2 K) [m2/s]	Compound
9.37e-10	1.06e-09	1.35e-09	1.64e-09	1.97e-09	NCCC(=O)O [3-aminopropanoic acid] + O
8.38e-10	9.54e-10	1.2e-09	1.49e-09	1.79e-09	NCCCC(=O)O [4-aminobutanoic acid] + O
6.88e-10	7.86e-10	1e-09	1.23e-09	1.48e-09	NCCCCCCC(=O)O [7-aminoheptanoic acid] + O
7.28e-10	8.25e-10	1.05e-09	1.29e-09	1.57e-09	NCCCCCC(=O)O [6-aminohexanoic acid] + O
7.76e-10	8.73e-10	1.12e-09	1.39e-09	1.66e-09	NCCCCC(=O)O [5-aminovaleric acid] + O
